In PubChem BioAssay AID1963958 (Molecular Pharmacology Branch, DTP, NCI, 2024):

Tested on: MDA-MB-231 multicell spheroids, viability
Assay: Anticancer human tumor MDA-MB-231 cell line growth inhibition [PI3K];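 further: spheroids exposed to agents for seven days before reading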;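 on viability, T/C: percent of vehicle control luminescence with DMSO treated spheroids as 100%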
Settings: for IC50: curve of first compound; for viability, T/C: stronger effect = lower value
Method in brief: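 We assembled tumor spheroids that included a stromal compartment of HUVEC and MSCs, then exposed them to targeted agents alone and together with PI3K pathway inhibitors. Concentration series descended by half-log from clinically achievable Cmax levels. Viability served as the endpoint.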

[1] = second compound 0.0316 µM, first compound 0.0316 µM
[2] = second compound 0.0316 µM, first compound 0.1 µM
[3] = second compound 0.0316 µM, first compound 0.316 µM
[4] = second compound 0.0316 µM, first compound 1 µM
[5] = second compound 0.0316 µM, first compound 3.16 µM
[6] = second compound 0.0316 µM, first compound 10 µM
[7] = second compound 0.1 µM, first compound 0.0316 µM
[8] = second compound 0.1 µM, first compound 0.1 µM
[9] = second compound 0.1 µM, first compound 0.316 µM
[10] = second compound 0.1 µM, first compound 1 µM
[11] = second compound 0.1 µM, first compound 3.16 µM
[12] = second compound 0.1 µM, first compound 10 µM
[13] = second compound 0.316 µM, first compound 0.0316 µM
[14] = second compound 0.316 µM, first compound 0.1 µM
[15] = second compound 0.316 µM, first compound 0.316 µM
[16] = second compound 0.316 µM, first compound 1 µM
[17] = second compound 0.316 µM, first compound 3.16 µM
[18] = second compound 0.316 µM, first compound 10 µM
[19] = second compound 1 µM, first compound 0.0316 µM
[20] = second compound 1 µM, first compound 0.1 µM
[21] = second compound 1 µM, first compound 0.316 µM
[22] = second compound 1 µM, first compound 1 µM
[23] = second compound 1 µM, first compound 3.16 µM
[24] = second compound 1 µM, first compound 10 µM
[25] = second compound 3.16 µM, first compound 0.0316 µM
[26] = second compound 3.16 µM, first compound 0.1 µM
[27] = second compound 3.16 µM, first compound 0.316 µM
[28] = second compound 3.16 µM, first compound 1 µM
[29] = second compound 3.16 µM, first compound 3.16 µM
[30] = second compound 3.16 µM, first compound 10 µM
[31] = second compound 10 µM, first compound 0.0316 µM
[32] = second compound 10 µM, first compound 0.1 µM
[33] = second compound 10 µM, first compound 0.316 µM
[34] = second compound 10 µM, first compound 1 µM
[35] = second compound 10 µM, first compound 3.16 µM
[36] = second compound 10 µM, first compound 10 µM

SMILES: C#Cc1c(F)ccc2cc(O)cc(-c3ncc4c(N5CC6CCC(C5)N6)nc(OCC56CCCN5CC(F)C6)nc4c3F)c12 (stereo unspecified) + Cc1nc(NC(=O)N2CCCC2C(N)=O)sc1-c1ccnc(C(C)(C)C(F)(F)F)c1
- IC50 (second compound 0.0316 µM): > 10000 nM
- IC50 (second compound 0.1 µM): 7620 nM
- IC50 (second compound 0.316 µM): 5670 nM
- IC50 (second compound 1 µM): 1700 nM
- IC50 (second compound 3.16 µM): 847 nM
- IC50 (second compound 10 µM): 230 nM
- viability, T/C [1]: 106%
- viability, T/C [2]: 96%
- viability, T/C [3]: 101%
- viability, T/C [4]: 68.3%
- viability, T/C [5]: 75.6%
- viability, T/C [6]: 54.9%
- viability, T/C [7]: 88.8%
- viability, T/C [8]: 87.6%
- viability, T/C [9]: 85.4%
- viability, T/C [10]: 73%
- viability, T/C [11]: 65.5%
- viability, T/C [12]: 45.2%
- viability, T/C [13]: 77.7%
- viability, T/C [14]: 82.8%
- viability, T/C [15]: 69.4%
- viability, T/C [16]: 60.4%
- viability, T/C [17]: 62%
- viability, T/C [18]: 42%
- viability, T/C [19]: 74.1%
- viability, T/C [20]: 69.8%
- viability, T/C [21]: 67.3%
- viability, T/C [22]: 55.2%
- viability, T/C [23]: 43.3%
- viability, T/C [24]: 33.3%
- viability, T/C [25]: 69.6%
- viability, T/C [26]: 65.5%
- viability, T/C [27]: 53.4%
- viability, T/C [28]: 49.6%
- viability, T/C [29]: 42%
- viability, T/C [30]: 28%
- viability, T/C [31]: 64.2%
- viability, T/C [32]: 58.4%
- viability, T/C [33]: 45.3%
- viability, T/C [34]: 36.9%
- viability, T/C [35]: 32%
- viability, T/C [36]: 18.1%

SMILES: CC(Cn1ccc(-c2ccc(C#N)c(Cl)c2)n1)NC(=O)c1cc(C(C)O)[nH]n1 (stereo unspecified) + Cc1nc(NC(=O)N2CCCC2C(N)=O)sc1-c1ccnc(C(C)(C)C(F)(F)F)c1
- IC50 (second compound 0.0316 µM): > 10000 nM
- IC50 (second compound 0.1 µM): > 10000 nM
- IC50 (second compound 0.316 µM): > 10000 nM
- IC50 (second compound 1 µM): > 10000 nM
- IC50 (second compound 3.16 µM): > 10000 nM
- IC50 (second compound 10 µM): > 10000 nM
- viability, T/C [1]: 92.9%
- viability, T/C [2]: 88.3%
- viability, T/C [3]: 98.9%
- viability, T/C [4]: 93.5%
- viability, T/C [5]: 86.4%
- viability, T/C [6]: 83.3%
- viability, T/C [7]: 86.8%
- viability, T/C [8]: 78.8%
- viability, T/C [9]: 87%
- viability, T/C [10]: 89.3%
- viability, T/C [11]: 86.2%
- viability, T/C [12]: 74.5%
- viability, T/C [13]: 73.2%
- viability, T/C [14]: 71.6%
- viability, T/C [15]: 77.4%
- viability, T/C [16]: 72.5%
- viability, T/C [17]: 68.2%
- viability, T/C [18]: 64.8%
- viability, T/C [19]: 68.6%
- viability, T/C [20]: 70.9%
- viability, T/C [21]: 67.1%
- viability, T/C [22]: 72.3%
- viability, T/C [23]: 66.6%
- viability, T/C [24]: 59.8%
- viability, T/C [25]: 68.4%
- viability, T/C [26]: 67.3%
- viability, T/C [27]: 68.7%
- viability, T/C [28]: 64.6%
- viability, T/C [29]: 61.9%
- viability, T/C [30]: 56.6%
- viability, T/C [31]: 68.3%
- viability, T/C [32]: 58%
- viability, T/C [33]: 60.3%
- viability, T/C [34]: 64.2%
- viability, T/C [35]: 62.8%
- viability, T/C [36]: 49.8%

SMILES: CC1(C)CCC(Nc2ncc(C(F)(F)F)c(-c3c[nH]c4c(P(C)(C)=O)c(C#N)ccc34)n2)CN1 (stereo unspecified) + Cc1nc(NC(=O)N2CCCC2C(N)=O)sc1-c1ccnc(C(C)(C)C(F)(F)F)c1
- IC50 (second compound 0.0316 µM): 31.6 nM
- IC50 (second compound 0.1 µM): 31.6 nM
- IC50 (second compound 0.316 µM): < 31.6 nM
- IC50 (second compound 1 µM): < 31.6 nM
- IC50 (second compound 3.16 µM): < 31.6 nM
- IC50 (second compound 10 µM): < 31.6 nM
- viability, T/C [1]: 47.6%
- viability, T/C [2]: 42.8%
- viability, T/C [3]: 47.6%
- viability, T/C [4]: 51.2%
- viability, T/C [5]: 54.6%
- viability, T/C [6]: 4.85%
- viability, T/C [7]: 48.5%
- viability, T/C [8]: 44.1%
- viability, T/C [9]: 45.2%
- viability, T/C [10]: 49.9%
- viability, T/C [11]: 52.5%
- viability, T/C [12]: 5.6%
- viability, T/C [13]: 44.5%
- viability, T/C [14]: 42.7%
- viability, T/C [15]: 44.7%
- viability, T/C [16]: 45.5%
- viability, T/C [17]: 47.5%
- viability, T/C [18]: 3.95%
- viability, T/C [19]: 43.4%
- viability, T/C [20]: 43.8%
- viability, T/C [21]: 43.9%
- viability, T/C [22]: 45.4%
- viability, T/C [23]: 44.8%
- viability, T/C [24]: 3.6%
- viability, T/C [25]: 43.5%
- viability, T/C [26]: 44%
- viability, T/C [27]: 42.5%
- viability, T/C [28]: 42.6%
- viability, T/C [29]: 40.4%
- viability, T/C [30]: 4.49%
- viability, T/C [31]: 41.7%
- viability, T/C [32]: 43.4%
- viability, T/C [33]: 40.5%
- viability, T/C [34]: 40.3%
- viability, T/C [35]: 38.1%
- viability, T/C [36]: 3.35%
